Source: patent publication US8765748B2, “Indazolyl, benzimidazolyl, benzotriazolyl substituted indolinone derivatives as kinase inhibitors useful in the treatment of cancer” (University Health Network, priority 2007, dated 2014)

Columns and labels:
Format in all cases: biochemical
[1] = target: T1, Aurora B (Homo sapiens, UniProt Q96GD4); test: Aurora B Inhibition Assay (Z-Lyte); details: for IC50: 128 μM ATP, 28 nM Aurora B, read-out: Aurora B IC50 Ranges; for inhibition at 10 µM: 10 μM compound, read-out: Aurora B relative inhibition percentage at a dose of 10 μM
T1 construct: purchased Invitrogen PV3970
T1 sequence (Q96GD4 whole entry): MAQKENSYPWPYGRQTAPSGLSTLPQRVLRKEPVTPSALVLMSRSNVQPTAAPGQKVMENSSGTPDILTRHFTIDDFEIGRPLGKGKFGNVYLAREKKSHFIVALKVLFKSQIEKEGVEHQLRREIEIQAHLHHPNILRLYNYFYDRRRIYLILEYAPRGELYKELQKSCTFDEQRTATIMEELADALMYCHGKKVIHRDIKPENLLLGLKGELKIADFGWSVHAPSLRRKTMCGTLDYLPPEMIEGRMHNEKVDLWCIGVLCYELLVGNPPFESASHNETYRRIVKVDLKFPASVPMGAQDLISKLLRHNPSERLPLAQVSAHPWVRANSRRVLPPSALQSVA
Procedure: (§1) Aurora B inhibition was determined using the Z-Lyte assay kit from Invitrogen. The assay was performed using the recommended manufacturer's instructions with 128 μM ATP and 28 nM Aurora B (Invitrogen cat #PV3970). The % inhibition values were determined according to the manufacturer's directions and IC50 values were obtained using a non-linear 4 point logistic curve fit (XLfit4, IDBS)

[2] = target: T2, human PLK4 (Homo sapiens, UniProt O00444); test: PLK4 Inhibition Assay (indirect ELISA); details: 15 μM ATP, 4 nM GST-PLK4; read-out: PLK4 IC50 Ranges
T2 construct: amino terminal GST fusion of residues 1-391 of human PLK4; made in house; host or cells: E. coli
T2 sequence (O00444 1-391): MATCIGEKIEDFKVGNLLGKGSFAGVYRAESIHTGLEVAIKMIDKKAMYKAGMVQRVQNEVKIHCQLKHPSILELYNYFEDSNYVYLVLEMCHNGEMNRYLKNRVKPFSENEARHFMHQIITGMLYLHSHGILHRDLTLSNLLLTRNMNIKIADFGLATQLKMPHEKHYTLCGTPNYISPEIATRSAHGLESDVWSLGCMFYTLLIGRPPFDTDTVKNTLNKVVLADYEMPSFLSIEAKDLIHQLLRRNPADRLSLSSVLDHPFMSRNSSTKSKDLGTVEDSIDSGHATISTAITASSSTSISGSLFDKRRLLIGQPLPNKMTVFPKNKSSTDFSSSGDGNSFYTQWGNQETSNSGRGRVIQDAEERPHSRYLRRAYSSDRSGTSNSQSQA
Method in brief: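 IC50 values, from 4-point logistic fitting, reflect remaining activity measured by indirect ELISA. Enzyme was GST-PLK4 treated with lambda phosphatase and given a 15-minute pre-incubation with compound before ATP start.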

[3] = target: T3, PLK2 (Homo sapiens, UniProt Q9NYY3); test: PLK2 Inhibition Assay (Z-Lyte); details: for inhibition at 10 µM: 10 μM compound, read-out: PLK2 relative inhibition percentage at a dose of 10 μM; for IC50: 60 μM ATP, 133 nM PLK2, read-out: PLK2 IC50 Ranges
T3 construct: purchased Invitrogen PV4204
T3 sequence (Q9NYY3 whole entry): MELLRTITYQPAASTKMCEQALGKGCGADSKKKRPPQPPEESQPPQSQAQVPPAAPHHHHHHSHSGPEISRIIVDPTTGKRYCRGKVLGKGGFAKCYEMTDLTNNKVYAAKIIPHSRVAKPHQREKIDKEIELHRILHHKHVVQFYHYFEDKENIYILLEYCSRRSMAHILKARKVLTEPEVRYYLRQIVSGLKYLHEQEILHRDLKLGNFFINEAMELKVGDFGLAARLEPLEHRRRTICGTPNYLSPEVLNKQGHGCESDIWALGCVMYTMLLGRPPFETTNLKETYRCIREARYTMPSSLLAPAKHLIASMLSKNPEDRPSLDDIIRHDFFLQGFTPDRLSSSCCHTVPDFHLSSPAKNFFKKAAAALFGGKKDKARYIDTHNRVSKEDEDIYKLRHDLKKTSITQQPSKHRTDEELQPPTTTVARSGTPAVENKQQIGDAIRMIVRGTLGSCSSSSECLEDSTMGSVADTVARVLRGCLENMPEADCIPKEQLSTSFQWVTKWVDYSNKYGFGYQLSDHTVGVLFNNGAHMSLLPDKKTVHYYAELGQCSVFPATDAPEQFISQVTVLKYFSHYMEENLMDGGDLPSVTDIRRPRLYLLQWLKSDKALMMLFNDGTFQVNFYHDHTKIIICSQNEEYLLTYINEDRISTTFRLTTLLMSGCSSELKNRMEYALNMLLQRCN
Procedure: as §1, with “PLK2” for “Aurora B”, “Invitrogen (cat #PV3802).” for “Invitrogen.”, “60” for “128”, “133” for “28”, “#PV4204).” for “#PV3970).”

[4] = target: T4, PLK1 (Homo sapiens, UniProt P53350); test: PLK1 Inhibition Assay (Z-Lyte); details: for inhibition at 10 µM: 10 μM compound, read-out: PLK1 relative inhibition percentage at a dose of 10 μM; for IC50: 25 μM ATP, 8 nM PLK1, read-out: PLK1 IC50 Ranges
T4 construct: purchased Invitrogen PV3501
T4 sequence (P53350 whole entry): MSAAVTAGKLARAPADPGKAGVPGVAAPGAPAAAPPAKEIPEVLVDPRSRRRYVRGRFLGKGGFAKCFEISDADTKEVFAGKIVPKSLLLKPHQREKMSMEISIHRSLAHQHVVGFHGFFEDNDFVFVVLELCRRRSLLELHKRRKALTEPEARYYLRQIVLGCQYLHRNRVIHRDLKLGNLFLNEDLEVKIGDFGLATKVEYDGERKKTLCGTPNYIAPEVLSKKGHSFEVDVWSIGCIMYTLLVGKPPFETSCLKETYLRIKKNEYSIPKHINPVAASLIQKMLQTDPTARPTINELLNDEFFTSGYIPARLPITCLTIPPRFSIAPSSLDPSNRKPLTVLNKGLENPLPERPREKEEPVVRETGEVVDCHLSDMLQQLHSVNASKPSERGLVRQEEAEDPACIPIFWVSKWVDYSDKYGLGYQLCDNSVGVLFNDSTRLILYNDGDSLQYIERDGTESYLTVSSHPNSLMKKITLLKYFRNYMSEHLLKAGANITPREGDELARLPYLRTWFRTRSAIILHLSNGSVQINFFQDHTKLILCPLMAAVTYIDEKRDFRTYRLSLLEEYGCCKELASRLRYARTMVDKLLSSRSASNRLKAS
Procedure: PLK1 inhibition was determined using the Z-Lyte assay kit from Invitrogen (cat #PV3802). […] The % inhibition values were determined according to the manufacturer's directions and IC50 values were obtained using a non-linear 4 point logistic curve fit (XLfit4, IDBS)

[5] = target: T5, Aurora A (Homo sapiens, UniProt O14965); test: Aurora A Inhibition Assay (Z-Lyte); details: for IC50: 20 μM ATP, 12 nM Aurora A, read-out: Aurora A IC50 Ranges; for inhibition at 10 µM: 10 μM compound, read-out: Aurora A relative inhibition percentage at a dose of 10 μM
T5 construct: purchased Invitrogen PV3612
T5 sequence (O14965 1-403): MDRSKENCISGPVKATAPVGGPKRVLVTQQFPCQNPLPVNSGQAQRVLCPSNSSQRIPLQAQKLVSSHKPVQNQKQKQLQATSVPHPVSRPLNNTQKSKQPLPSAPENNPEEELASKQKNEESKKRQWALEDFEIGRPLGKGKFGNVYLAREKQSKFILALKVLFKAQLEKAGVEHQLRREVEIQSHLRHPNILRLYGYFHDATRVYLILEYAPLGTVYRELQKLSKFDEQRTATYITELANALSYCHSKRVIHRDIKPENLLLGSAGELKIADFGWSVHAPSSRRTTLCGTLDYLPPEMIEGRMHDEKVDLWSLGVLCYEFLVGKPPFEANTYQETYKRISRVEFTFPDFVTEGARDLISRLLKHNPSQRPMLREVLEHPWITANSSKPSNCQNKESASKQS
Procedure: as §1, with “Aurora A” for “Aurora B”, “with 20” for “with 128”, “and 12” for “and 28”, “cat #PV3612).” for “cat #PV3970).”

| Compound | IC50 [1] | IC50 [2] | inhibition at 10 µM [3] | inhibition at 10 µM [4] | IC50 [5] | inhibition at 10 µM [1] | inhibition at 10 µM [5] | IC50 [4] | IC50 [3] |
| --- | --- | --- | --- | --- | --- | --- | --- | --- | --- |
| COc1ccc2c(c1)C(=Cc1ccc3c(/C=C/C(=O)N4CCN(C)CC4)n[nH]c3c1)C(=O)N2 (mixture of isomers) [Example A118, (E and Z)-5-methoxy-3-((3-((E)-3-(4-methylpiperazin-1-yl)-3-oxoprop-1-enyl)-1H-indazol-6-yl)methylene)indolin-2-one] | < 5 µM | < 5 µM | < 50% | < 50% | < 5 µM |  |  |  |  |
| O=C1Nc2ncc(Br)cc2C1=Cc1ccc2cn[nH]c2c1 (racemic) [Example A69, (E and Z)-3-((1H-indazol-6-yl)methylene)-5-bromo-1H-pyrrolo[2,3-b]pyridin-2(3H)-one] |  | < 5 µM | > 50% | > 50% |  | > 50% | > 50% |  |  |
| O=C1Nc2ccc(Br)cc2/C1=C\c1ccc2[nH]nnc2c1 [Example A3, (E)-3-((1H-benzo[d][1,2,3]triazol-5-yl)methylene)-5-bromoindolin-2-one] | 5 to 50 µM | < 5 µM | > 50% |  |  |  | < 50% | 5 to 50 µM |  |
| O=C1Nc2ccc(C(=O)Nc3ccccc3)cc2/C1=C\c1ccc2cn[nH]c2c1 [Example A11, (E)-3-((1H-indazol-6-yl)methylene)-2-oxo-N-phenylindoline-5-carboxamide] |  | < 5 µM | < 50% |  |  | > 50% | > 50% | > 50 µM |  |
| CC(=O)Nc1ccc2c(c1)NC(=O)/C2=C/c1ccc2cn[nH]c2c1 [Example A13, (E)-N-(3-((1H-indazol-6-yl)methylene)-2-oxoindolin-6-yl)acetamide] |  | < 5 µM | < 50% |  |  | < 50% | > 50% | 5 to 50 µM |  |
| O=C1Nc2ccc(F)cc2/C1=C\c1ccc2cn[nH]c2c1 [Example A16, (E)-3-((1H-indazol-6-yl)methylene)-5-fluoroindolin-2-one] | < 5 µM | < 5 µM |  |  | < 5 µM |  |  | 5 to 50 µM | < 5 µM |
| CC(=O)Nc1ccc2c(c1)/C(=C\c1ccc3cn[nH]c3c1)C(=O)N2 [Example A22, (E)-N-(3-((1H-indazol-6-yl)methylene)-2-oxoindolin-5-yl)acetamide] | 5 to 50 µM | < 5 µM | > 50% |  |  |  | > 50% | 5 to 50 µM |  |
| O=C1Nc2ccc(Br)cc2/C1=C\c1ccc2cn[nH]c2c1 [Example A35, (E)-3-((1H-indazol-6-yl)methylene)-5-bromoindolin-2-one] | < 5 µM | < 5 µM | < 50% |  |  |  | < 50% | > 50 µM |  |
| O=C1Nc2cc(Cl)ccc2/C1=C\c1ccc2cn[nH]c2c1 [Example A36, (E)-3-((1H-indazol-6-yl)methylene)-6-chloroindolin-2-one] | < 5 µM | < 5 µM | < 50% |  | > 50 µM |  |  | 5 to 50 µM |  |
| CC(C)(C)OC(=O)Nc1ccc2c(c1)NC(=O)/C2=C/c1ccc2cn[nH]c2c1 [Example A37, (E)-tert-butyl 3-((1H-indazol-6-yl)methylene)-2-oxoindolin-6-ylcarbamate] | < 5 µM | 5 to 50 µM |  |  |  |  | < 50% | > 50 µM | > 50 µM |
| Nc1ccc2c(c1)NC(=O)/C2=C/c1ccc2cn[nH]c2c1 [Example A38, (E)-3-((1H-indazol-6-yl)methylene)-2-oxoindolin-6-aminium 2,2,2-trifluoroacetate] | < 5 µM | < 5 µM | < 50% |  | 5 to 50 µM |  |  | 5 to 50 µM |  |
| O=C1Nc2c(F)cccc2/C1=C\c1ccc2cn[nH]c2c1 [Example A42, (E)-3-((1H-indazol-6-yl)methylene)-7-fluoroindolin-2-one] | < 5 µM | < 5 µM | > 50% |  | < 5 µM |  |  | > 50 µM |  |
| O=C1Nc2c(Cl)cccc2/C1=C\c1ccc2cn[nH]c2c1 [Example A43, (E)-3-((1H-indazol-6-yl)methylene)-7-chloroindolin-2-one] | < 5 µM | < 5 µM | > 50% |  | 5 to 50 µM |  |  | > 50 µM |  |
| O=C1Nc2ccccc2/C1=C\c1cc(-c2ccncc2)c2cn[nH]c2c1 [Example A54a, (E)-3-((4-(pyridin-4-yl)-1H-indazol-6-yl)methylene)indolin-2-one] | < 5 µM | < 5 µM | > 50% |  |  |  | > 50% | > 50 µM |  |
| Nc1cccc2c1NC(=O)/C2=C/c1ccc2cn[nH]c2c1 [Example A56, (E)-3-((1H-indazol-6-yl)methylene)-7-aminoindolin-2-one] | < 5 µM | < 5 µM |  |  | < 5 µM |  |  | > 50 µM | < 5 µM |
| O=C1Nc2ccccc2/C1=C\c1ccc2c(/C=C/c3ccccc3)n[nH]c2c1 [Example A58, (E)-3-((E)-(3-styryl-1H-indazol-6-yl)methylene)indolin-2-one] | < 5 µM | < 5 µM | < 50% | < 50% | < 5 µM |  |  |  |  |
| COC(=O)/C=C/c1n[nH]c2cc(/C=C3/C(=O)Nc4ccccc43)ccc12 [Example A61, (E)-methyl 3-(6-((E)-(2-oxoindolin-3-ylidene)methyl)-1H-indazol-3-yl)acrylate] | < 5 µM | < 5 µM | < 50% | < 50% | < 5 µM |  |  |  |  |
| O=C1Nc2ccc(Br)cc2/C1=C\c1ccc2c(/C=C/c3ccncc3)n[nH]c2c1 [Example A62, (E)-5-bromo-3-((3-((E)-2-(pyridin-4-yl)vinyl)-1H-indazol-6-yl)-methylene)indolin-2-one] | < 5 µM | < 5 µM | < 50% | < 50% | < 5 µM |  |  |  |  |
| O=C1Nc2ncccc2/C1=C\c1ccc2cn[nH]c2c1 [Example A67, (E)-3-((1H-indazol-6-yl)methylene)-1H-pyrrolo[2,3-b]pyridin-2(3H)-one] |  | < 5 µM | > 50% | > 50% |  | > 50% | > 50% |  |  |
| O=C1Nc2ncccc2/C1=C\c1ccc2c(/C=C/c3ccccn3)n[nH]c2c1 [Example A72, (E)-3-((3-((E)-2-(pyridin-2-yl)vinyl)-1H-indazol-6-yl)methylene)-1H-pyrrolo[2,3-b]pyridin-2(3H)-one] | < 5 µM | < 5 µM | < 50% | < 50% |  |  | > 50% |  |  |
| O=C1Nc2ccc(Cl)cc2/C1=C\c1ccc2cn[nH]c2c1 [Example A80, (E)-3-((1H-indazol-6-yl)methylene)-5-chloroindolin-2-one] | < 5 µM | < 5 µM | < 50% | < 50% | < 5 µM |  |  |  |  |
